Assay: recombinant barcode read abundance after kanamycin selection (control-corrected) (log10(CPM+1)); higher = more efficient recombination; sequences stand for … in AGTGCAGAGAAAATCGGCCAGTTTTCTCTGCCTGCAGTCCGCATGCCGT…AGATTTATGCAGCGGACTGCCTTTCTCCCAAAGTGATAAACCGGACAGTATCATGGACCGGTTTTCCCGGTAATCCGTATTTGCAAGGTTGGTTTCACT; site = the 11-nt target
Summary of the method: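 The screen was pooled in E. coli and paired targets with IS621 bridge RNA target-binding loops. Recombination efficiency is taken from barcode counts per million at recombinant junctions, averaged and adjusted against the control. Values, in the form log10(CPM+1), come from duplicate plating on chloramphenicol/ampicillin LB agar or on chloramphenicol/ampicillin/kanamycin with 0.1 mM IPTG.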
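Also: IS621 recombinase and bridge RNA in Escherichia coli cells.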

Row | Sequence | recombinant barcode read abundance (log10)
1 | TACTTCCCTTGGGTTCTAACCTGTTGCGT (site TACTTCCCTAC) | 1.87
2 | TACTTCCCTTGGGTTCTAACCTGTTGCGT (site TACTTCTCTAG) | 0.0128
3 | TACTTCTCTTGGGTTCTAACCTGTTGCCT (site TACTTCCCTAC) | 0.211
4 | TACTTCTCTTGGGTTCTAACCTGTTGCCT (site TACTTCTCTAG) | 0.764
5 | TACTTGCCTTGGGTTCTAACCTGTTGCCT (site TAATTGCCTAG) | 0.0842
6 | TACTTGCCTTGGGTTCTAACCTGTTGCCT (site TACTTGCCTAG) | 0.804
7 | TACTTGCCTTGGGTTCTAACCTGTTGCCT (site TAGTTGCCTAG) | 0.653
8 | TACTTGCCTTGGGTTCTAACCTGTTGCCT (site TATTTGCCTAG) | 0.182
9 | TAGAACTCTTGGGTTCTAACCTGTTGCCA (site TAGAACTCTAG) | 0.254
10 | TAGAACTCTTGGGTTCTAACCTGTTGCCA (site TAGAACTCTCG) | 0.23
11 | TAGAACTCTTGGGTTCTAACCTGTTGCCA (site TAGAACTCTGG) | 0.0926
12 | TAGAACTCTTGGGTTCTAACCTGTTGCCA (site TAGAACTCTTG) | 0.193
13 | TAGAAGACTTGGGTTCTAACCTGTTGCTA (site TAGAAGACTAA) | 0.115
14 | TAGAAGACTTGGGTTCTAACCTGTTGCTA (site TAGAAGACTCA) | 0.487
15 | TAGAAGACTTGGGTTCTAACCTGTTGCTA (site TAGAAGACTGA) | 0.155
16 | TAGAAGACTTGGGTTCTAACCTGTTGCTA (site TAGAAGACTTA) | 1.55
17 | TAGAAGACTTGGGTTCTAACCTGTTGCTG (site TAGAAGACTAA) | 0.128
18 | TAGAAGACTTGGGTTCTAACCTGTTGCTG (site TAGAAGACTCA) | 2.38
19 | TAGAAGACTTGGGTTCTAACCTGTTGCTG (site TAGAAGACTGA) | 0.315
20 | TAGAAGACTTGGGTTCTAACCTGTTGCTG (site TAGAAGACTTA) | 0.639
21 | TAGAAGCCTTGGGTTCTAACCTGTTGCTA (site TAGAAGCCTTA) | 0.463
22 | TAGAAGCCTTGGGTTCTAACCTGTTGCTA (site TAGAAGGCTTA) | 0.21

Row | Sequence | recombinant barcode read abundance (log10)
23 | TAGAAGGCTTGGGTTCTAACCTGTTGCAT (site TAGAAGGCTAA) | 0.162
24 | TAGAAGGCTTGGGTTCTAACCTGTTGCAT (site TAGAAGGCTAC) | 0.0752
25 | TAGAAGGCTTGGGTTCTAACCTGTTGCAT (site TAGAAGGCTAG) | 0.161
26 | TAGAAGGCTTGGGTTCTAACCTGTTGCAT (site TAGAAGGCTAT) | 1.97
27 | TAGAATCCTTGGGTTCTAACCTGTTGCAT (site TAGAATCCTAT) | 0.104
28 | TAGAATCCTTGGGTTCTAACCTGTTGCAT (site TAGAATCCTCT) | 0.102
29 | TAGAATCCTTGGGTTCTAACCTGTTGCAT (site TAGAATCCTGT) | 0.0579
30 | TAGAATCCTTGGGTTCTAACCTGTTGCAT (site TAGAATCCTTT) | 0.241
31 | TAGAATGCTTGGGTTCTAACCTGTTGCCT (site TAGAATGCTAA) | 0.133
32 | TAGAATGCTTGGGTTCTAACCTGTTGCCT (site TAGAATGCTAG) | 0.921
33 | TAGACATCTTGGGTTCTAACCTGTTGCTC (site TAGACATCTGA) | 0.323
34 | TAGACATCTTGGGTTCTAACCTGTTGCTC (site TAGCCATCTGA) | 0.0147
35 | TAGACATCTTGGGTTCTAACCTGTTGCTC (site TAGGCATCTGA) | 0.0149
36 | TAGACATCTTGGGTTCTAACCTGTTGCTC (site TAGTCATCTGA) | 0.016
37 | TAGACCTCTTGGGTTCTAACCTGTTGCCT (site AAGACCTCTAG) | 0.113
38 | TAGACCTCTTGGGTTCTAACCTGTTGCCT (site TAGACCTCTAG) | 1.86
39 | TAGACTACTTGGGTTCTAACCTGTTGCTT (site TAGACTACTAA) | 0.0704
40 | TAGACTACTTGGGTTCTAACCTGTTGCTT (site TAGACTACTCA) | 0.0933
41 | TAGACTACTTGGGTTCTAACCTGTTGCTT (site TAGACTACTGA) | 0.0122
42 | TAGACTACTTGGGTTCTAACCTGTTGCTT (site TAGACTACTTA) | 0.137
43 | TAGACTGCTTGGGTTCTAACCTGTTGCCT (site TAGACTGCTAG) | 1.04
44 | TAGACTGCTTGGGTTCTAACCTGTTGCCT (site TAGCCTGCTAG) | 0.224

Row | Sequence | recombinant barcode read abundance (log10)
45 | TAGACTGCTTGGGTTCTAACCTGTTGCCT (site TAGGCTGCTAG) | 0.107
46 | TAGACTGCTTGGGTTCTAACCTGTTGCCT (site TAGTCTGCTAG) | 0.451
47 | TAGAGGACTTGGGTTCTAACCTGTTGCAG (site TACAGGACTCT) | 0.0593
48 | TAGAGGACTTGGGTTCTAACCTGTTGCAG (site TAGAGGACTCT) | 2.23
49 | TAGATCGCTTGGGTTCTAACCTGTTGCAG (site TAGATCGCTCT) | 1.44
50 | TAGATCGCTTGGGTTCTAACCTGTTGCAG (site TAGGTCGCTAT) | 0.266
51 | TAGCACACTTGGGTTCTAACCTGTTGCCG (site TAGCACACTCG) | 1.51
52 | TAGCACACTTGGGTTCTAACCTGTTGCCG (site TCGCACACTCA) | 0.0962
53 | TAGCACCCTTGGGTTCTAACCTGTTGCCC (site TAGCACCCTAG) | 0.681
54 | TAGCACCCTTGGGTTCTAACCTGTTGCCC (site TAGCACCCTCG) | 0.642
55 | TAGCACCCTTGGGTTCTAACCTGTTGCCC (site TAGCACCCTGG) | 1.69
56 | TAGCACCCTTGGGTTCTAACCTGTTGCCC (site TAGCACCCTTG) | 0.0312
57 | TAGCAGACTTGGGTTCTAACCTGTTGCCT (site TAGCAGACTAG) | 1.45
58 | TAGCAGACTTGGGTTCTAACCTGTTGCCT (site TAGCCGACTAG) | 0.034
59 | TAGCAGACTTGGGTTCTAACCTGTTGCCT (site TAGCGGACTAG) | 0.0243
60 | TAGCAGACTTGGGTTCTAACCTGTTGCCT (site TAGCTGACTAG) | 0.0224
61 | TAGCATACTTGGGTTCTAACCTGTTGCCG (site TAGCATACTAG) | 0.271
62 | TAGCATACTTGGGTTCTAACCTGTTGCCG (site TAGCATACTCG) | 0.861
63 | TAGCATACTTGGGTTCTAACCTGTTGCCG (site TAGCATACTGG) | 0.06
64 | TAGCATACTTGGGTTCTAACCTGTTGCCG (site TAGCATACTTG) | 0.198
65 | TAGCCACCTTGGGTTCTAACCTGTTGCCT (site AAGCCACCTAG) | 0.151
66 | TAGCCACCTTGGGTTCTAACCTGTTGCCT (site CAGCCACCTAG) | 0.917

Row | Sequence | recombinant barcode read abundance (log10)
67 | TAGCCACCTTGGGTTCTAACCTGTTGCCT (site GAGCCACCTAG) | 0.0875
68 | TAGCCACCTTGGGTTCTAACCTGTTGCCT (site TAGCCACCTAG) | 1.94
69 | TAGCCGACTTGGGTTCTAACCTGTTGCCT (site TAGCAGACTAG) | 0.181
70 | TAGCCGACTTGGGTTCTAACCTGTTGCCT (site TAGCCGACTAG) | 1.59
71 | TAGCCGACTTGGGTTCTAACCTGTTGCCT (site TAGCGGACTAG) | 0.251
72 | TAGCCGACTTGGGTTCTAACCTGTTGCCT (site TAGCTGACTAG) | 0.0182
73 | TAGCCGACTTGGGTTCTAACCTGTTGCTT (site TAGACGACTAA) | 0.131
74 | TAGCCGACTTGGGTTCTAACCTGTTGCTT (site TAGCCGACTAA) | 0.999
75 | TAGCCGACTTGGGTTCTAACCTGTTGCTT (site TAGGCGACTAA) | 0.309
76 | TAGCCGACTTGGGTTCTAACCTGTTGCTT (site TAGTCGACTAA) | 0.242
77 | TAGCCGTCTTGGGTTCTAACCTGTTGCAC (site TAGACGACTGT) | 0.0911
78 | TAGCCGTCTTGGGTTCTAACCTGTTGCAC (site TAGCCGTCTGT) | 1.4
79 | TAGCCTTCTTGGGTTCTAACCTGTTGCTG (site TAGCCTTCTCA) | 1.02
80 | TAGCCTTCTTGGGTTCTAACCTGTTGCTG (site TAGCCTTCTTA) | 0.252
81 | TAGCTAGCTTGGGTTCTAACCTGTTGCGT (site GCTTACCCTTA) | 0.0618
82 | TAGCTAGCTTGGGTTCTAACCTGTTGCGT (site TAGCTAGCTAC) | 1.62
83 | TAGCTCACTTGGGTTCTAACCTGTTGCAT (site TAGATCACTAT) | 0.0546
84 | TAGCTCACTTGGGTTCTAACCTGTTGCAT (site TAGCTCACTAT) | 1.17
85 | TAGCTCACTTGGGTTCTAACCTGTTGCAT (site TAGGTCACTAT) | 0.181
86 | TAGCTCACTTGGGTTCTAACCTGTTGCAT (site TAGTTCACTAT) | 0.307

— the supplement of paper PMC11208160
